# Experimental data taken from patent publication US9000190B2, “Amide compound or salt thereof, biofilm inhibitor, biofilm remover and disinfectant containing the same” (The University of Tokyo, priority 2006, dated 2015).
# How the values were obtained:
# [1] = tested on: Pseudomonas aeruginosa (gfp expression PAO1-strain); test: Evaluation test for biofilm formation inhibition effect against Pseudomonas aeruginosa (flow cell system); assay type: cell-based; conditions: flow 200 μL per minute, observed after 1, 48, 60, 72, 84 hours
# Protocol: With the flow cell system shown in FIG. 1, an inhibitory effect against biofilm formation by Pseudomonas aeruginosa was evaluated for each of the amide compounds produced in Production Examples 1, 3, 5, 6 and 7 (Compounds 1a-1, 1b-1, 1c-1, 1c-2, 1d-1), and for each of Comparative Compounds (Comparative Example) 1 to 3 denoted by the following formulas.
# A culture medium bottle (1), a peristaltic pump (2), a glass cell (4) and a waste fluid bottle (5) are connected via a silicon tube (6) so that a culture medium (9) is supplied to the glass cell (4) from the culture medium bottle (1) using the peristaltic pump (2). The system includes an air removal section (3) between the peristaltic pump (2) and a turncock (7a), for removing the entrained air. All instruments in the flow cell system are sterilized using gamma-rays or an autoclave.
# As specifically described later, the inhibitory effect against biofilm formation of each of the amide compounds is examined in the following manner. Bacteria are cultured in a glass cell (4) to grow a biofilm on the inner wall of the cell, and a test liquid containing one of the amide compounds is applied to the biofilm. Then the state of the biofilm is observed to evaluate the inhibitory effect against biofilm formation of the compound using a fluorescence confocal microscope (Leica TCS SP2: product of Leica).
# The bacteria was prepared by inserting a pTdk-LVAgfp plasmid into a Pseudomonas aeruginosa PAO1-strain using the electroportion method so that the Pseudomonas aeruginosa PAO1-strain is transformed to express Green Fluorescent Protein (hereinafter referred to as “gfp expression PAO1-strain”) (see Teresa R. et al., Applied and Environmental Microbiology, April 2001, p. 1865-1873).
# A 30 mM glucose-containing FAB culture medium was used for preincubation, and a 0.3 mM glucose-containing FAB culture medium was used for main cultivation.
# The glucose-containing FAB culture medium was prepared by adding 200 μg/mL of carbenicillin to an aqueous solution containing 30 mM glucose or 0.3 mM glucose, 15 mM ammonium sulfate, 33.7 mM disodium hydrogenphosphate dihydrate, 22.1 mM potassium dihydrogen phosphate, 51.7 mM sodium chloride, 0.47 mM magnesium chloride, 0.08 mM calcium chloride and the following 0.1% trace metal solution.
# An aqueous solution containing 1.16 mM calcium sulfate dihydrate, 0.72 mM iron sulfate heptahydrate, 0.08 mM manganous sulfate monohydrate, 0.08 mM copper sulfate pentahydrate, 0.07 mM zinc sulfate heptahydrate, 0.04 mM cobalt sulfate heptahydrate, 0.04 mM […], and 0.08 mM boric acid.
# A gfp expression PAO1-strain was inoculated in a 30 mM glucose-containing FAB culture medium, and was subjected to shake culture at 37° C. in an isothermal tank overnight. The obtained overnight culture liquid was diluted by a 30 mM glucose-containing FAB culture medium to OD590=0.1.
# (§1) The test liquid was prepared by dissolving 100-250 μM of each of the Compounds 1a-1, 1b-1, 1c-1, 1c-2, or 1d-1 according to Production Examples 1, 3 and 5 to 7 and 100-250 μM of Comparative Compounds 1 to 3 as comparative examples in dimethyl sulfoxide (DMSO), and supplying the resulting DMSO solutions to a 0.3 mM glucose-containing FAB culture medium so that the concentration of each compound becomes 0.1%(v/v).
# (§2) A DMSO not containing the compound was used as a control test liquid.
# The flow cell system was filled with hydrous ethanol of 70 volume %, and was allowed to stand for at least 12 hours to sterilize the system. Then, air having been filtrated by a membrane filter (8a) was supplied into the flow cell system using the peristaltic pump (2) to dry the system. Thereafter, the system was filled with a 0.3 mM glucose-containing FAB culture medium. 500 μL of a bacterial suspension was injected into the glass cell (4) from the upper surface, and the glass cell was sealed by turning off the three-way turncock (7a,7b). The cell as such was allowed to stand for 1 hour at room temperature. […]
# [2] = tested on: Porphyromonas gingivalis 381-strain; test: Evaluation test for biofilm formation inhibition effect against periodontitis pathogenic bacteria (flow cell, HA disks, turbidity); assay type: cell-based; conditions: for inhibition of biofilm formation caused by periodontitis pathogenic bacteria (conclusion in words) / Mean OD Value: 100 μM; for inhibition of biofilm formation caused by periodontitis pathogenic bacteria (conclusion in words): 14 days; for Mean OD Value: turbidity of suspended biofilm at 550 nm
# Protocol: As with Experiment Example 1, using the flow cell system of FIG. 1, an inhibitory effect against biofilm formation by periodontitis pathogenic bacteria was evaluated for each of the amide compounds produced in Production Examples 1, 3, 5, and 6 (Compounds 1a-1, 1b-1, 1c-1, 1c-2).
# Periodontitis pathogenic bacteria Porphyromonas gingivalis 381-strain (clinical strain) was used.
# A GAM culture medium containing hemin 5 μg/L and menadione 1 μg/L was used.
# The 381-strain was inoculated in the GAM culture medium, and cultivated until stationary phase (OD550=1.8). Then the culture medium was diluted 20-fold by a fresh GAM culture medium containing the above-mentioned substances.
# The test liquid was prepared by dissolving 100 μM of each of the Compounds 1a-1, 1b-1, 1c-1, or 1c-2 according to Production Examples 1, 3, 5 and 6 and 100 μM of Comparative Compounds 1 and 2 as comparative examples in dimethyl sulfoxide (DMSO), and supplying the resulting DMSO solutions to the above-mentioned bacterial suspensions so that the concentration of each compound becomes 0.1%(v/v).
# as §2
# The glass cell (4) of the flow cell system (see FIG. 1) was replaced with a stainless cell (3×7×120 mm), and 10 hydroxyapatite (HA) disks (6 mm in diameter, 1 mm in thickness) were placed in the cell. The HA disks had been subjected to salivary treatment overnight. Each of the test liquids and control test liquids was circulated in the system at a flow rate of 8 mL/min for 14 days. Note that the test liquids and the control test liquids were replaced with fresh liquids every two days.
# After the cultivation, the HA disks were dipped in 300 μL of sterile distilled water, and treated by supersonic wave for 30 minutes at 4° C. The biofilms formed in the HA disks were peeled off and suspended in distilled water. Then, 100 μL of the suspension liquid was measured for the turbidity with an absorptiometer (C07500 colorimeter, product of Funakoshi) (measurement wavelength=550 nm).
# A mean OD was found based on the resulting OD values, excluding the minimum and maximum values. Also, a mean value of the turbidities for the Control Test Liquids was found in the same manner as the control mean OD value. A biofilm formation inhibition rate (Inhibition Rate) was found by the following formula. Biofilm Formation Inhibition Rate (%)={(Mean OD Value)/(Mean Comparison OD Value)}×100
# [3] = tested on: Pseudomonas aeruginosa (gfp expression PAO1-strain); test: Evaluation test for biofilm removal effect with respect to Pseudomonas aeruginosa (flow cell system); assay type: cell-based; conditions: test liquid 100 μM; for state of biofilm removal (disappearance of deposited biofilm, fluorescence confocal microscope): observed after 3, 4, 5, 6, 7 and 10 days; for time course of biofilm during removal test: up to 10 days
# Protocol: With the flow cell system of FIG. 1, a removal effect against biofilms formed by Pseudomonas aeruginosa was evaluated for each of the amide compounds produced in Production Examples 1, 3, 5, and 6 (Compounds 1a-1, 1b-1, 1c-1, 1c-2), and for Comparative Compounds 1 to 3 as comparative examples.
# The evaluation for biofilm removal effect was performed as follows. After cultivation of bacterias in the glass cell (4) of the flow cell system to grow a biofilm in the inner cell wall, a test liquid containing one of the amide compounds was applied to the biofilm.
# As with Experiment Example 1, a gfp expression PAO1-strain was used.
# At for the culture medium, the glucose-containing FAB culture medium, trace metal solution, and bacterial suspension as those of Experiment Example 1 were used.
# as §1, with “dissolving 100” for “dissolving 100-250”, “1b-1, 1c-1 and 1c-2” for “1b-1, 1c-1, 1c-2, or 1d-1”, “1, 3, 5” for “1, 3”, “and 6” for “and 5 to 7”, “and 100” for “and 100-250”, “examples denoted by the following formula” for “examples”
# as §2
# The flow cell system was filled with hydrous ethanol (70 volume %), and was allowed to stand for at least 12 hours to sterilize the system. Then, air having been filtrated by a membrane filter (8a) was supplied into the flow cell system using the peristaltic pump (2) to dry the system. Thereafter, the system was filled with a 0.3 mM glucose-containing FAB culture medium. 500 μL of the bacterial suspension was injected into the glass cell (4) from the upper surface, and the glass cell was sealed by turning off the three-way turncock (7a,7b). The cell as such was allowed to stand for an hour at room temperature.
# After the static culture, two of the three-way turncocks (7a,7b) were turned on, so as to supply each test liquid and control test liquid at a flow rate of 200 μL per minute. With a fluorescence confocal microscope, the process of biofilm formation (deposition) by the Pseudomonas aeruginosa (gfp expression PAO1-strain) adhered to the inner wall of the glass cell was observed three-dimensionally from above to observe changes over time (after 3 days, 4 days, 5 days, 6 days, 7 days, and 10 days). Note that the test liquid and the control test liquid were replaced with fresh liquids every 36 hours.
# S. aureus ATCC 29213 = conditions: Publicly-known data; cited from earlier work
# E. coli ATCC 25922 = conditions: Publicly-known data; cited from earlier work
# P. aeruginosa ATCC 27853 = conditions: Publicly-known data; cited from earlier work
SMILES,state of biofilm formation (fluorescence confocal microscope) compared with control test liquid ([1]; test liquid 100 μM),inhibition of biofilm formation caused by periodontitis pathogenic bacteria (conclusion in words) [2],"state of biofilm removal (disappearance of deposited biofilm, fluorescence confocal microscope) [3]",also measured
"CCCCCCCCCCCC(=O)NN1CCCCC1 [Compound 1d-1, N-(piperidine-1-yl) dodecanoyl amide]",such biofilm formation was not observed,,,
"CCCCCCCCCCCC(=O)NC1CCNCC1 [Compound 1b-1, N-(piperidine-4-yl) dodecanoyl amide]",,capable of inhibiting biofilm formation,the gradual disappearance of the deposited biofilm with time was observed,state of biofilm formation (fluorescence confocal microscope) compared with control test liquid ([1]; test liquid 250 μM): such biofilm formation was not observed
"NC[C@H]1O[C@H](O[C@H]2[C@H](O)[C@@H](O[C@H]3O[C@H](CO)[C@@H](O)[C@H](N)[C@H]3O)[C@H](N)C[C@@H]2N)[C@H](N)C[C@@H]1O [TOB, Tobramycin]",,,,MIC (μg/mL) from M100-S16 (S. aureus ATCC 29213): 0.12 to 1 µg/mL; MIC (μg/mL) from M100-S16 (E. coli ATCC 25922): 0.25 to 1 µg/mL; MIC (μg/mL) from M100-S16 (P. aeruginosa ATCC 27853): 0.25 to 1 µg/mL
"CCCCCCCCCC(O)CC(=O)NN1CCCC1 (stereo not shown) [Compound 1c-2, N-(pyrrolidin-1-yl)-3-hydroxy dodecanoyl amide]",such biofilm formation was not observed,capable of inhibiting biofilm formation,the gradual disappearance of the deposited biofilm with time was observed,"time course of biofilm during removal test [3]: the biofilm was first reduced and then increased again after a six-day cultivation, before it reduced again until it disappeared"
"CC[C@H]1OC(=O)[C@H](C)[C@@H](O[C@H]2C[C@@](C)(OC)[C@@H](O)[C@H](C)O2)[C@H](C)[C@@H](O[C@@H]2O[C@H](C)C[C@H](N(C)C)[C@H]2O)[C@](C)(O)C[C@@H](C)CN(C)[C@H](C)[C@@H](O)[C@]1(C)O [AZM, Azithromycin]",,,,MIC (μg/mL) from M100-S16 (S. aureus ATCC 29213): 0.5 to 2 µg/mL
"CCCC(=O)NN1CCCCC1 [Comparative Compound 3, reference compound]","the huge, thick biofilm was observed as in the control test",,,
"CCCCCCCCCC(=O)CC(=O)Nc1ccccc1O [Comparative Compound 1, reference compound]","the huge, thick biofilm was observed as in the control test",,,"Mean OD Value ([2]; HA disks, circulated 14 days): 0.629"
"CC(C)(O/N=C(\C(=O)N[C@@H]1C(=O)N2C(C(=O)[O-])=C(C[n+]3ccccc3)CS[C@H]12)c1csc(N)n1)C(=O)O [CAZ, Ceftazidime]",,,,MIC (μg/mL) from M100-S16 (S. aureus ATCC 29213): 4 to 16 µg/mL; MIC (μg/mL) from M100-S16 (E. coli ATCC 25922): 0.06 to 0.5 µg/mL; MIC (μg/mL) from M100-S16 (P. aeruginosa ATCC 27853): 1 to 4 µg/mL
"CCCCCCCCCCCC(=O)NN1CCCC1 [Compound 1c-1, N-(pyrrolidin-1-yl) dodecanoyl amide]",such biofilm formation was not observed,capable of inhibiting biofilm formation,the gradual disappearance of the deposited biofilm with time was observed,"time course of biofilm during removal test [3]: the biofilm was first reduced and then increased again after a six-day cultivation, before it reduced again until it disappeared"
"CCCC(=O)NN1CCCC1 [Comparative Compound 2, reference compound]","the huge, thick biofilm was observed as in the control test",,,"Mean OD Value ([2]; HA disks, circulated 14 days): 0.719; inhibition at 100 µM ([2]; Porphyromonas gingivalis, 381STRAIN, 336 h, HA disks, circulated 14 days, relative to control test liquid (DMSO), read-out: Biofilm Formation Inhibition Rate (%)): -49%"
"CCCCCCCCCCCC(=O)NC1CCNC1 (stereo not shown) [Compound 1a-1, N-(pyrrolidin-3-yl) dodecanoyl amide]",,capable of inhibiting biofilm formation,the gradual disappearance of the deposited biofilm with time was observed,state of biofilm formation (fluorescence confocal microscope) compared with control test liquid ([1]; test liquid 250 μM): such biofilm formation was not observed
